This note sets out measurements from paper PMC12444516, “Broad Substrate Specificity and High Catalytic Activity of Sphingomonadaceae PhoK-Type Phosphatases Implicated in Flame-Retardant Degradation” (ACS Omega, 2025).

Read-outs that look alike come from different tables or passages of the source.

A word on the kcat: it is the number of substrate molecules converted per active site and unit of time at saturation. A word on the kcat/Km: it is the second-order rate constant that governs catalysis at low substrate concentration.

Data set [1] relates to T1, SmSRS2-PhoK.
T1 construct: predicted Sec/SPI signal peptide; from a smaller PhoK cluster outside the main Sphingomonadaceae cluster
Kind of data set: UV/vis, p-nitrophenol release at […] nm, initial rates. It is filed as biochemical, Sphingomonas sp. SRS2. The conditions noted are these: 50 mM Ches pH 9.0; read-out: p-nitrophenyl phosphate (1) / K m.

Data set [2] deals with T2, St-PhoK.
T2 construct: predicted Sec/SPI signal peptide; also printed Sp-PhoK
In kind it is biochemical, Sphingopyxis terrae. The conditions noted are these: read-out: p-nitrophenyl phosphate (1) / K m.

The test system of data set [3] is T3, Sb-PhoK.
T3 construct: predicted Sec/SPI signal peptide; ~2 Zn per protein
It is filed as biochemical, Sphingobium sp. TCM1. Conditions: read-out: p-nitrophenyl phosphate (1) / K m.

Data set [4] deals with T4, No-PhoK.
T4 construct: predicted Sec/SPI signal peptide
It is filed as biochemical, Novosphingobium sp. EMRT-2. Conditions: read-out: p-nitrophenyl phosphate (1) / K m.

The subject of data set [5] is T5, SmTDK1-PhoK.
T5 construct: synthetic codon-optimised gene in pET29a with native stop codon, untagged; E. coli BL21(DE3); ammonium sulfate, Resource Q flow-through, S200; predicted Sec/SPI signal peptide
It is filed as biochemical, Sphingomonas sp. TDK1. The conditions noted are these: read-out: p-nitrophenyl phosphate (1) / K m.

In data set [6] the test system is SmTDK1-PhoK. The conditions noted are these: read-out: phenyl phosphate (2) / K m.
In data set [7] the test system is St-PhoK. The conditions noted are these: read-out: phenyl phosphate (2) / K m.
For data set [8], the system named is Sb-PhoK. The conditions noted are these: read-out: phenyl phosphate (2) / K m.
In data set [9] the test system is No-PhoK. The conditions noted are these: read-out: phenyl phosphate (2) / K m.
Data set [10] has as its system T1, SmSRS2-PhoK. Kind of data set: UV/vis, phenol release at […] nm, initial rates. It is filed as biochemical, Sphingomonas sp. SRS2. Conditions: 50 mM Ches pH 9.0; read-out: phenyl phosphate (2) / K m.
Substrate in data set [11]: O=[N+]([O-])c1ccc(OP(=O)(O)O)cc1
Kind of data set: purified protein. Conditions: 50 mM Ches pH 9.0.

Substrate in data set [12]: O=P(O)(O)Oc1ccccc1
Kind of data set: purified protein. In kind it is biochemical, Sphingomonas sp. The conditions noted are these: 50 mM Ches pH 9.0.

In the case of `O=[N+]([O-])c1ccc(OP(=O)(O)O)cc1` [compound 1, p-nitrophenyl phosphate], the Km was found to be 88 ± 4 µM in the data set on SmSRS2-PhoK [1]; 78 ± 3 µM with St-PhoK [2]; 69 ± 2 µM with Sb-PhoK [3]; 153 ± 5 µM in the data set on No-PhoK [4]; 450 ± 10 µM with SmTDK1-PhoK [5].
In the case of `O=P(O)(O)Oc1ccccc1` [compound 2, phenyl phosphate], the Km amounted to 600 ± 20 µM in the data set on SmTDK1-PhoK [6]; 81 ± 5 µM with St-PhoK [7]; 650 ± 30 µM in the data set with Sb-PhoK [8]; 300 ± 20 µM with No-PhoK [9]; 104 ± 5 µM with SmSRS2-PhoK [10].

B1: Sm-PhoK (Sphingomonas sp.) (protein)
chain: QSPAPAAAPAPAARSIAATPPKLIVAISVDQFSADLFSEYRQYYTGGLKRLTSEGAVFPRGYQSHAATETCPGHSTILTGSRPSRTGIIANNWFDLDAKREDKNLYCAEDESQPGSSSDKYEASPLHLKVPTLGGRMKAANPATRVVSVAGKDRAAIMMGGATADQVWWLGGPQGYVSYKGVAPTPLVTQVNQAFAQRLAQPNPGFELPAQCVSKDFPVQAGNRTVGTGRFARDAGDYKGFRISPEQDAMTLAFAAAAIENMQLGKQAQTDIISIGLSATDYVGHTFGTEGTESCIQVDRLDTELGAFFDKLDKDGIDYVVVLTADHGGHDLPERHRMNAMPMEQRVDMALTPKALNATIAEKAGLPGKKVIWSDGPSGDIYYDKGLTAAQRARVETEALKYLRAHPQVQTVFTKAEIAATPSPSGPPESWSLIQEARASFYPSRSGDLLLLLKPRVMSIPEQAVMGSVATHGSPWDTDRRVPILFWRKGMQHFEQPLGVETVDILPSLAALIKLPVPKDQIDGRCLDLVAGKDDSCAGQ
notes: predicted Sec/SPI signal peptide; binuclear Zn site, nucleophile T89
For the molecule B1, the Km in “purified protein [11]” was 174 ± 4 µM. Besides, in the data set “purified protein [12]”, the Km was determined as 600 ± 20 µM, the kcat stood at 1100 ± 10 s⁻¹ and the catalytic efficiency (kcat/Km) worked out at 1.84e+06 ± 60000 M⁻¹ s⁻¹.
